Patent US20080207718A1, “Use of Fused Imidazole Derivatives to Mediate Ccr3 Related Conditions” (priority 2005, published 2008)

Molecular target: T1, human CCR-3 (Homo sapiens, UniProt P51677)
T1 construct: expressed in transfected cells; host or cells: rat basophil leukaemia (RBL-2H3) cells, membrane preparation
T1 sequence (P51677 1-355): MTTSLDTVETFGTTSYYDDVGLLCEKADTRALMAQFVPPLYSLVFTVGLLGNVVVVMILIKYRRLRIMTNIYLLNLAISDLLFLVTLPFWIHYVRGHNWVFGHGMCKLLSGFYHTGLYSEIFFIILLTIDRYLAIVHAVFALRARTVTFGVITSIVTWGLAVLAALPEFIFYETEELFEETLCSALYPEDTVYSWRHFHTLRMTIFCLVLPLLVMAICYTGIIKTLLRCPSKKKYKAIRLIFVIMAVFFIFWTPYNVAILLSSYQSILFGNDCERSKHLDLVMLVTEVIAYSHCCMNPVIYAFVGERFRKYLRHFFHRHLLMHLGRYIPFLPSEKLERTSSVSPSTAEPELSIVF
Assay: binding of [125I]-human eotaxin to human CCR3 (SPA, membranes of RBL-2H3 cells expressing CCR3)
Details: 4 hours at room temperature, read-out: IC50 value (inhibition of eotaxin binding to CCR3)
Method: In this assay the effect of the compounds of the present invention on the binding of human eotaxin to human CCR-3 is determined. Recombinant cells expressing human CCR3 are captured by wheatgerm agglutinin (WGA) polyvinyltoluidene (PVT) SPA beads (available from Amersham), through a specific interaction between the WGA and carbohydrate residues of glycoproteins on the surface of the cells. [^125I]-human eotaxin (available from Amersham) binds specifically to CCR3 receptors bringing the [^125I]-human eotaxin in close proximity to the SPA beads. Emitted […] from the [^125I]-human eotaxin excite, by its proximity, the fluorophore in the beads and produce light.
Preparation of Assay Buffer: 5.96 g HEPES and 7.0 g sodium chloride are dissolved in distilled H2O and 1M aqueous CaCl2 (1 ml) and 1M aqueous MgCl2 (5 ml) are added. The pH is adjusted to 7.6 with NaOH and the solution made to a final volume of 1 L using distilled H2O. 5 g of bovine serum albumin and 0.1 g NaN3 are dissolved in the solution and the resulting buffer stored at 4° C. […]
The assay is performed in a final volume of 250 μl per well of an Optiplate™ microplate (ex Canberra Packard). […] The resulting scintillations are counted using a Canberra Packard TopCount™ scintillation counter, each well being counted for 1 minute. […]

| IC50 | Structure (SMILES) |
| --- | --- |
| 21 nM | COc1ccc(OC)c(NC(=O)C[n+]2cc(-c3ccc(Cl)c(Cl)c3)n3c2CCC3)c1 [Example 322] |
| 23 nM | O=C(C[n+]1cc(-c2ccc(Cl)c(Cl)c2)n2c1CCC2)Nc1ccc2c(c1)OCCO2 [Example 341] |
